In patent US6737383B1, “Herbicidal oxadiazolidines” (priority 1999, dated 2004):

Legend:
soybean = experiment: Test B pre/postemergence soybean; type: in vivo, Glycine max
How it was run: (§1)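 Test chemicals in a non-phytotoxic solvent mixture with surfactant were sprayed preemergence onto planted seeds and postemergence onto plants 2 to 18 cm tall (1- to 4-leaf stage). After twelve to sixteen days in a greenhouse, injury was visually rated against untreated controls from 0 (no effect) to 10 (complete control).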

sugar beet = experiment: Test B pre/postemergence sugar beet; type: in vivo, Beta vulgaris
How it was run: as §1

blackgrass = experiment: Test B pre/postemergence blackgrass; type: in vivo, Alopecurus myosuroides
How it was run: as §1

morningglory = experiment: Test B pre/postemergence morningglory; type: in vivo, Ipomoea hederacea
How it was run: as §1

wild oat = experiment: Test B pre/postemergence wild oat; type: in vivo, Avena fatua
How it was run: as §1

surinam grass = experiment: Test B pre/postemergence surinam grass; type: in vivo, Brachiaria decumbens
How it was run: as §1

pigweed = experiment: Test B pre/postemergence pigweed; type: in vivo, Amaranthus retroflexus
How it was run: as §1

smallflower flatsedge = experiment: Test B flood test smallflower flatsedge; type: in vivo, Cyperus difformis
How it was run: (§2)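 Flood test on plants grown to the 2-leaf stage; treated plants kept in greenhouse twelve to sixteen days, then visually rated against controls on a 0 (no effect) to 10 (complete control) scale.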

corn = experiment: Test B pre/postemergence corn; type: in vivo, Zea mays
How it was run: as §1

giant foxtail = experiment: Test B pre/postemergence giant foxtail; type: in vivo, Setaria faberii
How it was run: as §1

cocklebur = experiment: Test B pre/postemergence cocklebur; type: in vivo, Xanthium strumarium
How it was run: as §1

rape = experiment: Test B pre/postemergence rape; type: in vivo, Brassica napus
How it was run: as §1

bedstraw = experiment: Test B pre/postemergence bedstraw; type: in vivo, Galium aparine
How it was run: as §1

velvetleaf = experiment: Test B pre/postemergence velvetleaf; type: in vivo, Abutilon theophrasti
How it was run: as §1

wheat = experiment: Test B pre/postemergence wheat; type: in vivo, Triticum aestivum
How it was run: as §1

rice = experiment: Test B flood test rice; type: in vivo, Oryza sativa
How it was run: as §2

[1] = Preemergence, Rate 62 g/ha, scale of 0 to 10 where 0 is no effect and 10 is complete control
[2] = Preemergence, Rate 250 g/ha, scale of 0 to 10 where 0 is no effect and 10 is complete control
[3] = Preemergence, Rate 500 g/ha, scale of 0 to 10 where 0 is no effect and 10 is complete control
[4] = Rate 62 g/ha, Postemergence, scale of 0 to 10 where 0 is no effect and 10 is complete control
[5] = Rate 125 g/ha, Postemergence, scale 0 to 10
[6] = Rate 125 g/ha, Preemergence, scale of 0 to 10 where 0 is no effect and 10 is complete control
[7] = Rate 500 g/ha, Postemergence, scale 0 to 10
[8] = Rate 62 g/ha, headed Pre-emergence (flood test species), scale 0 to 10 (0 no effect, 10 complete control)
[9] = Rate 125 g/ha, Pre-emergence, flood test species, scale 0 to 10 where 0 is no effect and 10 is complete control
[10] = Rate 250 g/ha, Pre-emergence, flood-test species, scale 0 to 10, 0 is no effect, 10 is complete control
[11] = Rate 500 g/ha, Pre-emergence, flood test species, scale 0 to 10 (0 no effect, 10 complete control)

Compound: CC(C)N(C(=O)n1oc(=O)n(CCC(F)=C(F)F)c1=O)c1ccc(F)cc1 [Compound 218]
- Soybean plant response rating (soybean; [1]): 0
- Soybean plant response rating (soybean; [2]): 2
- Plant response rating, Soybean (soybean; [3]): 6
- Soybean plant response rating (soybean; [4]): 3
- Soybean plant response rating (soybean; [5]): 4
- Soybean plant response rating (soybean; [6]): 2
- Plant response rating (0 to 10; 0 is no effect, 10 is complete control), Soybean (soybean; Rate 250 g/ha, Postemergence): 6
- Soybean plant response rating (soybean; [7]): 7
- Sugarbeets plant response rating (sugar beet; [1]): 0
- Sugarbeets plant response rating (sugar beet; [2]): 6
- Plant response rating, Sugarbeets (sugar beet; [3]): 7
- Sugarbeets plant response rating (sugar beet; [4]): 2
- Sugarbeets plant response rating (sugar beet; [5]): 2
- Sugarbeets plant response rating (sugar beet; [6]): 1
- Plant response rating (0 to 10; 0 is no effect, 10 is complete control), Sugarbeets (sugar beet; Rate 250 g/ha, Postemergence): 2
- Sugarbeets plant response rating (sugar beet; [7]): 4
- Blackgrass plant response rating (blackgrass; [1]): 8
- Blackgrass plant response rating (blackgrass; [2]): 9
- Plant response rating, Blackgrass (blackgrass; [3]): 10
- Blackgrass plant response rating (blackgrass; [4]): 5
- Blackgrass plant response rating (blackgrass; [5]): 5
- Blackgrass plant response rating (blackgrass; [6]): 9
- Plant response rating (0 to 10; 0 is no effect, 10 is complete control), Blackgrass (blackgrass; Rate 250 g/ha, Postemergence): 7
- Blackgrass plant response rating (blackgrass; [7]): 8
- Morningglory plant response rating (morningglory; [1]): 0
- Morningglory plant response rating (morningglory; [2]): 0
- Plant response rating, Morningglory (morningglory; [3]): 0
- Morningglory plant response rating (morningglory; [4]): 3
- Morningglory plant response rating (morningglory; [5]): 4
- Morningglory plant response rating (morningglory; [6]): 0
- Plant response rating (0 to 10; 0 is no effect, 10 is complete control), Morningglory (morningglory; Rate 250 g/ha, Postemergence): 8
- Morningglory plant response rating (morningglory; [7]): 9
- Wild oats plant response rating (wild oat; [1]): 5
- Wild oats plant response rating (wild oat; [2]): 7
- Plant response rating, Wild oats (wild oat; [3]): 9
- Wild oats plant response rating (wild oat; [4]): 0
- Wild oats plant response rating (wild oat; [5]): 0
- Wild oats plant response rating (wild oat; [6]): 6
- Plant response rating (0 to 10; 0 is no effect, 10 is complete control), Wild oats (wild oat; Rate 250 g/ha, Postemergence): 1
- B. signalgrass plant response rating (surinam grass; [1]): 0
- B. signalgrass plant response rating (surinam grass; Preemergence, Rate 250 g/ha, scale 0 to 10, 0 is no effect, 10 is complete control): 6
- Plant response rating, B. signalgrass (surinam grass; [3]): 7
- B. signalgrass plant response rating (surinam grass; [4]): 0
- B. signalgrass plant response rating (surinam grass; Rate 125 g/ha, Postemergence, scale 0 (no effect) to 10 (complete control)): 0
- B. signalgrass plant response rating (surinam grass; [6]): 4
- Plant response rating (0 to 10; 0 is no effect, 10 is complete control), B. signalgrass (surinam grass; Rate 250 g/ha, Postemergence): 3
- B. signalgrass plant response rating (surinam grass; Rate 500 g/ha, Postemergence, scale 0 to 10, 0 no effect, 10 complete control): 7
- Redroot pigweed plant response rating (pigweed; [1]): 6
- Redroot pigweed plant response rating (pigweed; [2]): 8
- Plant response rating, Redroot pigweed (pigweed; [3]): 10
- Redroot pigweed plant response rating (pigweed; [4]): 0
- Redroot pigweed plant response rating (pigweed; [5]): 1
- Redroot pigweed plant response rating (pigweed; [6]): 1
- Plant response rating (0 to 10; 0 is no effect, 10 is complete control), Redroot pigweed (pigweed; Rate 250 g/ha, Postemergence): 3
- Redroot pigweed plant response rating (pigweed; [7]): 7
- S. Flatsedge plant response rating (smallflower flatsedge; [8]): 0
- S. Flatsedge plant response rating (smallflower flatsedge; [9]): 0
- S. Flatsedge plant response rating (smallflower flatsedge; [10]): 0
- S. Flatsedge plant response rating (smallflower flatsedge; [11]): 0
- Corn plant response rating (corn; [1]): 0
- Corn plant response rating (corn; [2]): 0
- Plant response rating, Corn (corn; [3]): 6
- Corn plant response rating (corn; [4]): 0
- Corn plant response rating (corn; [5]): 0
- Corn plant response rating (corn; [6]): 0
- Plant response rating (0 to 10; 0 is no effect, 10 is complete control), Corn (corn; Rate 250 g/ha, Postemergence): 0
- Corn plant response rating (corn; [7]): 0
- Giant foxtail plant response rating (giant foxtail; [1]): 9
- Giant foxtail plant response rating (giant foxtail; [2]): 10
- Plant response rating, Giant foxtail (giant foxtail; [3]): 10
- Giant foxtail plant response rating (giant foxtail; [4]): 1
- Giant foxtail plant response rating (giant foxtail; [5]): 5
- Giant foxtail plant response rating (giant foxtail; [6]): 9
- Plant response rating (0 to 10; 0 is no effect, 10 is complete control), Giant foxtail (giant foxtail; Rate 250 g/ha, Postemergence): 7
- Giant foxtail plant response rating (giant foxtail; [7]): 8
- Cocklebur plant response rating (cocklebur; [1]): 0
- Cocklebur plant response rating (cocklebur; [2]): 0
- Plant response rating, Cocklebur (cocklebur; [3]): 0
- Cocklebur plant response rating (cocklebur; [4]): 0
- Cocklebur plant response rating (cocklebur; [5]): 0
- Cocklebur plant response rating (cocklebur; [6]): 0
- Plant response rating (0 to 10; 0 is no effect, 10 is complete control), Cocklebur (cocklebur; Rate 250 g/ha, Postemergence): 3
- Cocklebur plant response rating (cocklebur; [7]): 4
- Rape plant response rating (rape; [1]): 0
- Rape plant response rating (rape; [2]): 0
- Plant response rating, Rape (rape; [3]): 2
- Rape plant response rating (rape; [4]): 0
- Rape plant response rating (rape; [5]): 1
- Rape plant response rating (rape; [6]): 0
- Plant response rating (0 to 10; 0 is no effect, 10 is complete control), Rape (rape; Rate 250 g/ha, Postemergence): 6
- Rape plant response rating (rape; [7]): 7
- Bedstraw plant response rating (bedstraw; [1]): 0
- Bedstraw plant response rating (bedstraw; [2]): 0
- Plant response rating, Bedstraw (bedstraw; [3]): 3
- Bedstraw plant response rating (bedstraw; [4]): 6
- Bedstraw plant response rating (bedstraw; [5]): 8
- Bedstraw plant response rating (bedstraw; [6]): 0
- Bedstraw plant response rating (bedstraw; [7]): 8
- Velvetleaf plant response rating (velvetleaf; [1]): 0
- Velvetleaf plant response rating (velvetleaf; [2]): 0
- Plant response rating, Velvetleaf (velvetleaf; [3]): 2
- Velvetleaf plant response rating (velvetleaf; [4]): 0
- Velvetleaf plant response rating (velvetleaf; [5]): 0
- Velvetleaf plant response rating (velvetleaf; [6]): 0
- Plant response rating (0 to 10; 0 is no effect, 10 is complete control), Velvetleaf (velvetleaf; Rate 250 g/ha, Postemergence): 2
- Wheat plant response rating (wheat; [1]): 0
- Wheat plant response rating (wheat; [2]): 0
- Plant response rating, Wheat (wheat; [3]): 3
- Wheat plant response rating (wheat; [4]): 0
- Wheat plant response rating (wheat; [5]): 0
- Wheat plant response rating (wheat; [6]): 0
- Plant response rating (0 to 10; 0 is no effect, 10 is complete control), Wheat (wheat; Rate 250 g/ha, Postemergence): 0
- Rice plant response rating (rice; [8]): 0
- Rice plant response rating (rice; [9]): 0
- Rice plant response rating (rice; [10]): 0
- Rice plant response rating (rice; [11]): 0
